The record followed here is patent US20240158352A1, “NOVEL ADAMANTYL DERIVATIVE OR PHARMACEUTICALLY ACCEPTABLE SALT THEREOF, AND USE THEREOF” (CAN-Therapy Inc., priority 2021, published 2024).

For orientation: IC50 means the concentration that gives 50% inhibition.

Structures are written as SMILES.

Assay [1] concerns the target T1, DPP4 (human recombinant) (Homo sapiens, UniProt P27487).
T1 construct: purchased Abcam (Boston, USA) 133081
Briefly: DPP4 screening assay (Abcam 133081 kit, Gly-Pro-AMC fluorescent substrate). Type of assay: biochemical. Conditions: FIG. 1; for DPP4 inhibitory activity: treated at 1 μM, 100 nM, 10 nM, 1 nM and 100 pM, 37° C., 30 minutes. As to the method:
DPP4 screening assay was performed to identify the DPP4 inhibitory activity of the adamantyl derivatives KUgt-102 and KUgt-103 of the present disclosure. Abcam (Boston, USA) 133081 was used as an assay kit, and Gly-Pro-Aminomethylcoumarin was used as a fluorescent substrate. That is, the fluorescence emitted from aminomethylcoumarin (AMC), which was freed by cleaving the peptide bond by DPP, was analyzed at an excitation wavelength of 350 to 360 nm and an emission wavelength of 450 to 465 nm to measure the DPP4 inhibitory activity.
More specifically, DPP Assay Buffer (10×) was dissolved in HPLC-grade pure water, thereby preparing 1× solution. 120 μl of DPP4 (human recombinant) contained in each glass vial was mixed with 480 μl of 1× assay buffer. 120 μl of Gly-Pro-AMC, in which 5 mM H-Gly-Pro was conjugated to AMC, was dissolved in 2.88 ml assay buffer to produce DPP substrate. As a positive control, vildagliptin and saxagliptin, which have a similar structure to the derivative of the present disclosure, known as DPP4 inhibitor, were dissolved in 500 μl of assay buffer to make 1 mM, and the result was used in the reaction. As an experimental group, 10 μl each of adamantyl derivatives KUgt-102 and KUgt-103 was used in the reaction. […] The reaction was repeated three times.
After the reaction, fluorescence was measured at an excitation wavelength of 350-360 nm and an emission wavelength of 450-465 nm using a fluorescence microplate reader (SPECTRA MAX Gemini EM, USA). Thereafter, the inhibitory activity was calculated as follows.

Assay [2] deals with LLC, a mouse lung carcinoma cell line. Briefly: WST cell viability assay, LLC. The class given is cell-based. Conditions: 0.01 to 20 mM, 2 days; for IC50: 48 h, mouse lung carcinoma, WST, read-out: Cell growth inhibition IC50. As to the method: (§1) After treating LLC, a mouse lung carcinoma cell line, and A549, a human lung cancer cell line, with KUgt-102 derivatives, cell viability was measured by water soluble tetrazolium (WST) cell viability assay.
(§2) The lung cancer cell lines LLC and A549 were attached to a 96-well plate at 5×10e^3 and 1×10e^4 cells/wells, respectively. The next day, the culture medium was removed, and they were added with new medium treated with the KUgt-102 derivative and evogliptin and saxagliptin, respectively, which have a structure similar to that of the derivative of the present disclosure known as a DPP4 inhibitor, as a positive control, in a concentration-dependent manner from 0.01 to 20 mM. Cells treated with the derivative and control group were cultured at 37° C. in 5% CO2. After 2 days, the cultured cells were treated with WST reagent (EZ-CYTOX, Dogen, Republic of Korea) at a final volume of 1:10 to analyze cell viability. Thereafter, the cultured plate was stored in an incubator at 37° C.
(§3) After culturing for 1 hour, the color change was measured at 450 nm using a microplate reader (SpectraMAX190, molecular Devices, CA, USA), and the measurement results are shown in FIGS. 2 and 3.

The subject of assay [3] is A549, a human lung cancer cell line. The assay is described as follows: WST cell viability assay, A549. The class given is cell-based. As to conditions: for IC50: 48 h, A549, human lung cancer, WST, read-out: Cell growth inhibition IC50. As for the experimental part:
as §1, §2, §3

T1 sequence (P27487 whole entry): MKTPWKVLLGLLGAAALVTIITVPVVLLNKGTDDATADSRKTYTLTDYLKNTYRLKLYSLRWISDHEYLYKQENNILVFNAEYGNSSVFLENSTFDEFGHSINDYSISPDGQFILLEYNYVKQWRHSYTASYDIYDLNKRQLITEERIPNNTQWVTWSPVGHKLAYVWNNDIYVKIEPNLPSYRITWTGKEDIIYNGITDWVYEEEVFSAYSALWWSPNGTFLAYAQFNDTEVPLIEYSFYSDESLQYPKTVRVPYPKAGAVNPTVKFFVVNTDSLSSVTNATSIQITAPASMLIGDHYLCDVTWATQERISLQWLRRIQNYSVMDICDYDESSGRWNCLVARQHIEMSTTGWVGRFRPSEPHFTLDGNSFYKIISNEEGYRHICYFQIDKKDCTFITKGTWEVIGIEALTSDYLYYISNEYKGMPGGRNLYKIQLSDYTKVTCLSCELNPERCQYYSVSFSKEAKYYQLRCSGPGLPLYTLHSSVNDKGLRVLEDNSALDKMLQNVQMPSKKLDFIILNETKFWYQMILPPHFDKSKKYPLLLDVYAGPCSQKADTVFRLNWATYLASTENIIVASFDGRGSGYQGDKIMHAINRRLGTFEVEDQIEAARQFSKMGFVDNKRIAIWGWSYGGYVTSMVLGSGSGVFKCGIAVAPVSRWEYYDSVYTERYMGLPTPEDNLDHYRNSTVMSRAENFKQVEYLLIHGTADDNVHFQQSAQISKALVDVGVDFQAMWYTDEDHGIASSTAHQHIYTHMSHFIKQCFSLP

In the case of `N#C[C@@H]1CCCCN1C(=O)[C@@H](N)C12CC3CC(CC(O)(C3)C1)C2` [KUgt-102, (S)-1-((S)-2-amino-2-((1r,3R,5R,7S)-3-hydroxyadamantan-1-yl)acetyl)piperidine-2-carbonitrile], the “DPP4 inhibitory activity compared with positive controls vildagliptin and saxagliptin” value in assay [1] is “higher inhibitory activity than vildagliptin and saxacliptin”. In addition, the DPP4 inhibitory activity result in assay [1] is “excellent DPP4 inhibitory activity”. In addition, the cell viability entry in assay [2] (FIG. 2) is reported as “inhibited cell viability in a concentration-dependent manner”; in assay [3] (A549, 0.01 to 20 mM, 2 days, FIG. 3) it was “inhibited cell viability in a concentration-dependent manner”. Besides, the half-maximal inhibitory concentration (IC50) in assay [2] came to 330 ± 10 µM; in assay [3] (0.01 to 20 mM, 2 days), 240 ± 10 µM. Further, in assay [3] (human lung cancer cell lines), the “anticancer activity relative to evogliptin and saxagliptin, based on the same amount” value is on record as “about three times better anticancer activity”. Moreover, the “amount needed for effective killing effect compared to evogliptin and saxagliptin” value in assay [3] (human lung cancer cell lines, relative to evogliptin and saxagliptin) was not above 30%.
Turning to `N#C[C@@H]1C[C@@H]2C[C@@H]2N1C(=O)[C@@H](N)C12CC3CC(CC(O)(C3)C1)C2` [Saxagliptin, saxagliptin, reference compound], the half-inhibitory concentration (IC50) in assay [2] worked out at 950 ± 10 µM; in assay [3] (0.01 to 20 mM, 2 days), 900 ± 10 µM.
In the case of `N[C@H](C(=O)N(CCO)CCO)C12CC3CC(CC(O)(C3)C1)C2` [KUgt-103, (S)-2-amino-2-((1r,3R,5R,7S)-3-hydroxyadamantan-1-yl)-N,N-bis(2-hydroxyethyl)acetamide], the DPP4 inhibitory activity entry in assay [1] is “excellent DPP4 inhibitory activity”.
As to `CC(C)(C)OC[C@@H]1C(=O)NCCN1C(=O)C[C@H](N)Cc1cc(F)c(F)cc1F` [Evogliptin, evogliptin, reference compound], the half-inhibitory concentration (IC50) in assay [2] came out at 660 ± 10 µM; in assay [3] (0.01 to 20 mM, 2 days), 750 ± 10 µM.
